Read-outs that look alike come from different tables or passages of the source. Non-standard residues stand in square brackets, D forms with d. Residues, ends and D or L forms follow the SMILES beside them. hArg = N=C(N)NCCCC[C@H](N)C(=O)O; Cha = N[C@@H](CC1CCCCC1)C(=O)O; Ac6c = NC1(C(=O)O)CCCCC1; Nle = CCCC[C@H](N)C(=O)O; Aib = CC(C)(N)C(=O)O
Target: T1, PTH receptor present on SaOS-2 (human osteosarcoma cells) (Homo sapiens, UniProt Q03431)
T1 construct: host or cells: SaOS-2 human osteosarcoma cells (intact, confluent monolayers)
T1 sequence (Q03431 27-593): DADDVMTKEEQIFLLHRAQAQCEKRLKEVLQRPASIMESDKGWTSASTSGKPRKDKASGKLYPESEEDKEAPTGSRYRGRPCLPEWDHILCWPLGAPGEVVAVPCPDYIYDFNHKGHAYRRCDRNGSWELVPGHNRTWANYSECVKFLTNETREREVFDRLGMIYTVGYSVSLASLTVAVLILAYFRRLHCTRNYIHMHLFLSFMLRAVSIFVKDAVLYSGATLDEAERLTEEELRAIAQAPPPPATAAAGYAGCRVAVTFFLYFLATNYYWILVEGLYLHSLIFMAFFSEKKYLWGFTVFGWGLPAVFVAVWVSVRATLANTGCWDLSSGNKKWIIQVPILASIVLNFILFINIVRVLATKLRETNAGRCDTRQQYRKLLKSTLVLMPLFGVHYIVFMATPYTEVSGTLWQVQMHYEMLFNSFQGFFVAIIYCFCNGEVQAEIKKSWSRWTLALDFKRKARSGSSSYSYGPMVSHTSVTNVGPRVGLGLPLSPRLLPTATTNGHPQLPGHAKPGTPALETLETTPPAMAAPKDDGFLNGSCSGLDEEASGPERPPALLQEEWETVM
Assay: Binding to PTH receptor on SaOS-2 cells (competition with mono-125I-[Nle8,18,Tyr34(3-125I)]bPTH(1-34)NH2)
Details: 2 hrs at room temperature, read-out: Kd (half maximal inhibition of binding of mono-125I-[Nle8,18, Tyr34(3-125I)]bPTH(1-34)NH2)
Procedure: A. Binding to PTH Receptor
The peptides of the invention were tested for their ability to bind to the PTH receptor present on SaOS-2 (human osteosarcoma cells). SaOS-2 cells (American Type Culture Collection, Rockville, Md.; ATCC #HTB 85) were maintained in RPMI 1640 medium (Sigma, St. Louis, Mo.) supplemented with 10% fetal bovine serum (FBS) and 2 mM glutamine at 37EC in a humidified atmosphere of 5% CO2 in air. The medium was changed every three or four days, and the cells were subcultured every week by trypsinization.
SaOS-2 cells were maintained for four days until they had reached confluence. The medium was replaced with 5% FBS in RPMI 1640 medium and incubated for 2 hrs at room temperature with 10×10^4 cpm mono-^125I-[Nle^8,18, Tyr^34(3-^125I)]bPTH(1-34)NH2 in the presence of a competing peptides of the invention at various concentrations between 10^−11 M to 10^−4 M. The cells were washed four times with ice-cold PBS and lysed with 0.1 M NaOH, and the radioactivity associated with the cells was counted in a scintillation counter. Synthesis of mono-^125I-[Nle^8,18, Tyr^34(3-^125I)]bPTH(1-34)NH2 was carried out as described in Goldman, M. E., et al., Endocrinol., 123:1468 (1988).
The binding assay was conducted with various peptides of the invention, and the Kd value (half maximal inhibition of binding of mono-^125I-[Nle^8,18, Tyr^34(3-^125I)]bPTH(1-34)NH2) for each peptide was calculated.

SMILES | Kd (Table I) | Kd (Table II)
CCCC[C@H](NC(=O)[C@H](CO)NC(=O)[C@H](CC(N)=O)NC(=O)[C@H](CC(C)C)NC(=O)[C@H](Cc1c[nH]cn1)NC(=O)[C@H](CCCCN)NC(=O)CNC(=O)[C@H](CC1CCCCC1)NC(=O)[C@H](CC(N)=O)NC(=O)[C@H](Cc1c[nH]cn1)NC(=O)[C@H](CCCC)NC(=O)[C@H](CC1CCCCC1)NC(=O)[C@H](CCC(N)=O)NC(=O)[C@@H](NC(=O)[C@H](CCC(=O)O)NC(=O)[C@H](CO)NC(=O)[C@@H](NC(=O)[C@@H](N)CO)C(C)C)[C@@H](C)CC)C(=O)N[C@@H](CCC(=O)O)C(=O)N[C@@H](CCCNC(=N)N)C(=O)N[C@H](C(=O)N[C@@H](CCC(=O)O)C(=O)N[C@@H](Cc1c[nH]c2ccccc12)C(=O)N[C@@H](CC(C)C)C(=O)N[C@@H](CCCNC(=N)N)C(=O)N[C@@H](CCCCN)C(=O)N[C@@H](CCCCN)C(=O)N[C@@H](CC(C)C)C(=O)N[C@@H](CCC(N)=O)C(=O)N[C@@H](CC(=O)O)C(=O)N[C@H](C(=O)N[C@@H](Cc1c[nH]cn1)C(=O)N[C@@H](CC(N)=O)C(=O)N[C@@H](Cc1ccc(O)cc1)C(N)=O)C(C)C)C(C)C [[Cha^7,11, Nle^8,18, Tyr^34]hPTH(1-34)NH2] (H-SVSEIQ[Cha][Nle]HN[Cha]GKHLNS[Nle]ERVEWLRKKLQDVHNY-NH2) | 6 nM | –
CC[C@H](C)[C@H](NC(=O)[C@H](CO)NC(=O)[C@H](CCCCN)NC(=O)CNC(=O)[C@H](CCCCN)NC(=O)[C@H](CC(=O)O)NC(=O)[C@H](Cc1c[nH]cn1)NC(=O)[C@H](CC(C)C)NC(=O)[C@H](CC(C)C)NC(=O)[C@H](CCC(N)=O)NC(=O)[C@H](Cc1c[nH]cn1)NC(=O)[C@H](CCC(=O)O)NC(=O)[C@H](CO)NC(=O)[C@@H](NC(=O)[C@H](C)N)C(C)C)C(=O)N[C@@H](CCC(N)=O)C(=O)N[C@@H](CC(=O)O)C(=O)N[C@@H](CC(C)C)C(=O)N[C@@H](CCCNC(=N)N)C(=O)N[C@@H](CCCNC(=N)N)C(=O)N[C@@H](CCCNC(=N)N)C(=O)N[C@@H](CCC(=O)O)C(=O)N[C@@H](CC(C)C)C(=O)N[C@@H](CC(C)C)C(=O)N[C@@H](CCC(=O)O)C(=O)N[C@@H](CCCCN)C(=O)N[C@@H](CC(C)C)C(=O)N[C@@H](CC(C)C)C(=O)NC(C)(C)C(=O)N[C@@H](CCCCN)C(=O)NC1(C(=O)N[C@@H](Cc2c[nH]cn2)C(=O)N[C@H](C(=O)N[C@@H](C)C(N)=O)[C@@H](C)O)CCCCC1 [[Glu^22,25, Leu^23,28, Lys^26,30, Aib^29, Ahc^31]hPTHrP(1-34)NH2] (H-AVSEHQLLHDKGKSIQDLRRRELLEKLL[Aib]K[Ac6c]HTA-NH2) | – | 200 nM
CC[C@H](C)[C@H](NC(=O)[C@H](CO)NC(=O)[C@H](CCCCN)NC(=O)CNC(=O)[C@H](CCCCN)NC(=O)[C@H](CC(=O)O)NC(=O)[C@H](Cc1c[nH]cn1)NC(=O)[C@H](CC(C)C)NC(=O)[C@H](CC(C)C)NC(=O)[C@H](CCC(N)=O)NC(=O)[C@H](Cc1c[nH]cn1)NC(=O)[C@H](CCC(=O)O)NC(=O)[C@H](CO)NC(=O)[C@@H](NC(=O)[C@H](C)N)C(C)C)C(=O)N[C@@H](CCC(N)=O)C(=O)N[C@@H](CC(=O)O)C(=O)N[C@@H](CC(C)C)C(=O)N[C@@H](CCCNC(=N)N)C(=O)N[C@@H](CCCNC(=N)N)C(=O)N[C@@H](CCCNC(=N)N)C(=O)N[C@@H](CCC(=O)O)C(=O)NC1(C(=O)N[C@@H](CC(C)C)C(=O)N[C@@H](CCC(=O)O)C(=O)N[C@@H](CCCCN)C(=O)N[C@@H](CC(C)C)C(=O)N[C@@H](CC(C)C)C(=O)NC(C)(C)C(=O)N[C@@H](CCCCN)C(=O)N[C@@H](CC(C)C)C(=O)N[C@@H](Cc2c[nH]cn2)C(=O)N[C@H](C(=O)N[C@@H](C)C(N)=O)[C@@H](C)O)CCCCC1 [[Glu^22,25, Ahc^23, Lys^26,30, Leu^28,31, Aib^29]hPTHrP(1-34)NH2] (H-AVSEHQLLHDKGKSIQDLRRRE[Ac6c]LEKLL[Aib]KLHTA-NH2; N-terminus assumed) | – | 70 nM

More lines, now with the values ahead:

Kd (Table I) | Kd (Table II) | SMILES
20 nM | – | CC[C@H](C)[C@H](NC(=O)[C@H](CCC(=O)O)NC(=O)[C@H](CO)NC(=O)[C@@H](NC(=O)[C@@H](N)CO)C(C)C)C(=O)N[C@@H](CCC(N)=O)C(=O)N[C@@H](CC1CCCCC1)C(=O)N[C@@H](CCSC)C(=O)N[C@@H](Cc1c[nH]cn1)C(=O)N[C@@H](CC(N)=O)C(=O)N[C@@H](CC(C)C)C(=O)NCC(=O)N[C@@H](CCCCN)C(=O)N[C@@H](Cc1c[nH]cn1)C(=O)N[C@@H](CC(C)C)C(=O)N[C@@H](CC(N)=O)C(=O)N[C@@H](CO)C(=O)N[C@@H](CCSC)C(=O)N[C@@H](CCC(=O)O)C(=O)N[C@@H](CCCNC(=N)N)C(=O)N[C@H](C(=O)N[C@@H](CCC(=O)O)C(=O)N[C@@H](Cc1c[nH]c2ccccc12)C(=O)N[C@@H](CC(C)C)C(=O)N[C@@H](CCCNC(=N)N)C(=O)N[C@@H](CCCCN)C(=O)N[C@@H](CCCCN)C(=O)N[C@@H](CC(C)C)C(=O)N[C@@H](CCC(N)=O)C(=O)N[C@@H](CC(=O)O)C(=O)N[C@H](C(=O)N[C@@H](Cc1c[nH]cn1)C(=O)N[C@@H](CC(N)=O)C(=O)N[C@@H](Cc1ccccc1)C(N)=O)C(C)C)C(C)C [[Cha^7]hPTH(1-34)NH2] (H-SVSEIQ[Cha]MHNLGKHLNSMERVEWLRKKLQDVHNF-NH2)
7 nM | – | CC[C@H](C)[C@H](NC(=O)[C@H](CCC(=O)O)NC(=O)[C@H](CO)NC(=O)[C@@H](NC(=O)[C@@H](N)CO)C(C)C)C(=O)N[C@@H](CCC(N)=O)C(=O)N[C@@H](CC(C)C)C(=O)N[C@@H](CCSC)C(=O)N[C@@H](Cc1c[nH]cn1)C(=O)N[C@@H](CC(N)=O)C(=O)N[C@@H](CC(C)C)C(=O)NCC(=O)N[C@@H](CCCCN)C(=O)N[C@@H](Cc1c[nH]cn1)C(=O)N[C@@H](CC(C)C)C(=O)N[C@@H](CC(N)=O)C(=O)N[C@@H](CO)C(=O)N[C@@H](CCSC)C(=O)N[C@@H](CCC(=O)O)C(=O)N[C@@H](CCCNC(=N)N)C(=O)N[C@H](C(=O)N[C@@H](CCC(=O)O)C(=O)N[C@@H](Cc1c[nH]c2ccccc12)C(=O)N[C@@H](CC(C)C)C(=O)N[C@@H](CCCNC(=N)N)C(=O)N[C@@H](CCCCN)C(=O)N[C@@H](CCCCNC(=N)N)C(=O)N[C@@H](CC(C)C)C(=O)N[C@@H](CCC(N)=O)C(=O)N[C@@H](CC(=O)O)C(=O)N[C@H](C(=O)N[C@@H](Cc1c[nH]cn1)C(=O)N[C@@H](CC(N)=O)C(=O)N[C@@H](Cc1ccccc1)C(N)=O)C(C)C)C(C)C [[hArg^27]hPTH(1-34)NH2] (H-SVSEIQLMHNLGKHLNSMERVEWLRK[hArg]LQDVHNF-NH2)
100 nM | – | CC[C@H](C)[C@H](NC(=O)[C@H](CCC(=O)O)NC(=O)[C@H](CO)NC(=O)[C@@H](NC(=O)[C@@H](N)CO)C(C)C)C(=O)N[C@@H](CCC(N)=O)C(=O)N[C@@H](CC(C)C)C(=O)N[C@@H](CCSC)C(=O)N[C@@H](Cc1c[nH]cn1)C(=O)N[C@@H](CC(N)=O)C(=O)N[C@@H](CC(C)C)C(=O)NCC(=O)N[C@@H](CCCCN)C(=O)N[C@@H](Cc1c[nH]cn1)C(=O)N[C@@H](CC(C)C)C(=O)N[C@@H](CC(N)=O)C(=O)N[C@@H](CO)C(=O)N[C@@H](CCSC)C(=O)N[C@@H](CCC(=O)O)C(=O)N[C@@H](CCCNC(=N)N)C(=O)N[C@H](C(=O)N[C@@H](CCC(=O)O)C(=O)N[C@@H](Cc1c[nH]c2ccccc12)C(=O)N[C@@H](CC1CCCCC1)C(=O)N[C@@H](CCCNC(=N)N)C(=O)N[C@@H](CCCCN)C(=O)N[C@@H](CCCCN)C(=O)N[C@@H](CC(C)C)C(=O)N[C@@H](CCC(N)=O)C(=O)N[C@@H](CC(=O)O)C(=O)N[C@H](C(=O)N[C@@H](Cc1c[nH]cn1)C(=O)N[C@@H](CC(N)=O)C(=O)N[C@@H](Cc1ccccc1)C(N)=O)C(C)C)C(C)C [[Cha^24]hPTH(1-34)NH2] (H-SVSEIQLMHNLGKHLNSMERVEW[Cha]RKKLQDVHNF-NH2)

Reference: patent publication US7632811B2, “Analogs of parathyroid hormone” (Societe de Conseils de Recherches et D'Applications …, priority 1995, dated 2009)
